Data published in US12350252B2, “Water-soluble cannabinoid formulations and methods of their making” (SOLUSCIENCE, LLC, priority 2019, dated 2025).

Assay: Accelerated stability study of 2% CBD colloidal dispersion (cannabinoid profile, appearance, pH, microbial growth)
Format: physicochemical
Description: The solid dispersion included 20% CBD, 75% of Poloxamer 407 and 5% ascorbic acid was dissolved in distilled water to produce the homogenic, stable colloidal dispersion of cannabidiol at 2% (20 mg/mL) by weight of the formulation.

[1] = Day # 0, content in colloidal dispersion of cannabidiol at 2% (20 mg/mL)
[2] = Day # 90, stored at 100° F. (38° C.), content in colloidal dispersion of cannabidiol at 2%

Row | SMILES | Cannabinoid profile Result [1] | Cannabinoid profile Result (%) [1] | Cannabinoid profile Result [2] | Cannabinoid profile Result (%) [2]
1 | C=C(C)[C@@H]1CCC(C)=C[C@H]1c1c(O)cc(CCCCC)cc1O [Cannabidiol (CBD), Cannabidiol] | 20.2 mg/g | 2.02% | 21.9 mg/g | 2.19%
2 | CCCCCc1cc(O)c(C/C=C(\C)CCC=C(C)C)c(O)c1 [Cannabigerol (CBG), Cannabigerol] | 0.3 mg/g | 0.03% |  | 
3 | CCCCCc1cc(O)c2c(c1)OC(C)(C)c1ccc(C)cc1-2 [Cannabinol (CBN), Cannabinol] | 0.3 mg/g | 0.03% |  | 
